{"source": "patent US20140206992A1", "about": "“METHOD FOR DIAGNOSING CANCER” (THE UNIVERSITY OF TOKYO, priority 2010, published 2014)", "key": {"[1]": {"test_system": "SHIN3 cells derived from human ovarian cancer (peritoneal dissemination model)", "experiment": "Live imaging of cancer model mouse using fluorescent endoscope", "format": "in vivo", "settings": "300 μL of 50 μM in PBS sprayed from endoscope tip", "description": "(§1) Disseminated metastasis of ovarian cancer to the peritoneum is known as a generally-occurring lethal complication of ovarian cancer. Such metastasis to the peritoneum begins to occur at a relatively early stage of ovarian cancer, the tumor invades the […], and falls into the abdominal cavity, and as a result, the tumor metastasizes to the other organs in the abdominal cavity as seeds are scattered (dissemination metastasis). In order to experimentally reproduce this phenomenon, SHIN3 cells of ovarian cancer origin were intraperitoneally administered to athymic mice to prepare a peritoneal dissemination model (Neoplasia, 8, pp. 607-612, 2006).\nThe SHIN3 cells derived from human ovarian cancer were cultured at 37° C. in the RPMI 1640 medium containing 10% FBS, 100 U/mL of penicillin, and 100 μg/mL of streptomycin under 5% CO2. After the cells reached subconfluent, the cells were washed with PBS (phosphate buffered saline), and removed with Trypsin-EDTA so that individual cells were separated. The treated cells were centrifuged (100×g, 4° C., 3 minutes), and after the supernatant was discarded, ice-cooled PBS was added to the cells to suspend them at a cell density of 1×10^6 cells/300 μL. […]\nA small hole was formed in the abdominal part of the peritoneal dissemination model mouse under isoflurane anesthesia, a fluorescence endoscope was inserted into the abdominal cavity through the hole, and 300 μL of a solution of Compound (2) (γGlu-RhoHM) in PBS (50 μM) was sprayed in a misty state from the tip of the endoscope. Then, an excitation light of 450 to 480 nm was irradiated, and fluorescence of 516 to 556 nm was observed over time to obtain fluorescence endoscope movies and images. In each of the results obtained immediately after the spray (0 sec), and 30 seconds, 60 seconds, 90 seconds, and 10 minutes after the spray, a white light image is shown on the left side, and a fluorescence image is shown on the right side. The “white light image” is an image obtained in a usual endoscope mode, not a fluorescence mode for comparison."}, "[2]": {"test_system": "SHIN3 cells derived from human ovarian cancer (peritoneal dissemination model)", "experiment": "Fluorescence imaging using cancer model mouse (peritoneal dissemination model)", "format": "in vivo, athymic mice", "settings": "300 μL of 50 μM in PBS i.p., 30 minutes after administration, from outside the body and after abdominal section", "description": "as §1, with “2006). […]” for “2006).”\nA solution of Compound (2) (γGlu-RhoHM) in PBS (50 μM) in a volume of 300 μL was intraperitoneally (i.p.) administered to the peritoneal dissemination model mice. Fluorescence imaging was performed by irradiating an excitation light of 450 to 480 nm from the outside of the mouse body under anesthesia 30 minutes after the i.p. administration, and observing fluorescence of 516 to 556 nm. Further, after the mice were sacrificed with CO2 gas, and exsanguination was performed, abdominal section was performed with surgery appliances for small animals to expose the abdominal cavity, an excitation light of 445 to 490 nm was irradiated, and fluorescence was measured at every 10 nm from 520 to 800 nm to obtain fluorescence spectrum images. […]"}, "LAP": {"test_system": "LAP", "experiment": "Enzyme specificity: reaction with LAP", "format": "biochemical", "method": "Enzyme specificity of Compound (2) was examined. The DMSO solution (5 mM) in a volume of 3 μL was dissolved in 3 mL of a 0.1 M sodium phosphate buffer (pH 7.4) at a final concentration of 5 μM, and LAP (0.4 U) was added to the solution to perform the enzymatic reaction at 37° C."}, "[3]": {"test_system": "γ-glutamyltranspeptidase (GGT, equine kidney)", "experiment": "Enzymatic reaction of the fluorescent probe with γ-glutamyltranspeptidase (GGT)", "format": "biochemical", "settings": "5 μM compound, excitation 501 nm", "method": "Compound (2) (γGlu-RhoHM) formed by binding the acyl residue derived from glutamic acid to one amino group of Compound (1) (RhoHM) was dissolved in a neutral phosphate buffer, and γ-glutamyltranspeptidase (GGT, equine kidney, SIGMA G9270-100UN) was reacted with the solution. Specifically, 3 μL of a […] of the compound in dimethyl sulfoxide (DMSO) was dissolved at a final concentration of 5 μM in 3 mL of a 0.1 M sodium phosphate buffer (pH 7.4), and GGT (1.1 U) was added for the enzymatic reaction at 37° C. The excitation wavelength was 501 nm.\nThe DMSO solution of the compound (5 mM) in a volume of 3 μL was dissolved in 3 mL of a 0.1 M sodium phosphate buffer (pH 7.4) at a final concentration of 5 μM, and the enzymatic reaction was performed at 37° C. The values of fluorescence intensity observed with each amount of the enzyme 9 minutes after the addition of the enzyme were plotted. The excitation wavelength was 501 nm, and the fluorescence emission wavelength was 524 nm."}}, "data": [{"smiles": "Nc1ccc2c(c1)Oc1cc(NC(=O)CC[C@H](N)C(=O)O)ccc1C21OCc2ccccc21", "note": "(some centres unmarked) [Compound (2), γGlu-RhoHM]", "values": [{"measurement": "time to specific fluorescence emission of the cancerous part", "setting": "[1]", "result": "specifically emit fluorescence within several minutes"}, {"measurement": "cancerous tissue fluorescence images 10 minutes after spray", "setting": "[1]; 10 minutes after the spray", "result": "cancerous tissues were clearly imaged"}, {"measurement": "cancerous tissue fluorescence images from immediately after spray to 90 seconds", "setting": "[1]; excitation 450 to 480 nm, fluorescence 516 to 556 nm", "result": "cancerous tissue images became clearer"}, {"measurement": "fluorescence of cancer sites in imaging", "setting": "[2]", "result": "strong green fluorescence was observed in a cancer site-specific manner"}, {"measurement": "increase of fluorescence intensity after reaction with LAP", "setting": "LAP; 5 μM compound, 0.1 M sodium phosphate buffer pH 7.4, LAP 0.4 U, 37° C.", "result": "increase of fluorescence intensity was not observed"}, {"measurement": "enzyme specificity (GGT versus LAP)", "setting": "LAP; conclusion from the reactions with LAP (Example 3) and GGT (Example 2)", "result": "specifically detected GGT"}, {"measurement": "change of absorption and fluorescence intensity after reaction with GGT", "setting": "[3]; 0.1 M sodium phosphate buffer pH 7.4, GGT 1.1 U, 37° C.", "result": "remarkable elevations of absorption and fluorescence intensity were immediately observed"}, {"measurement": "fluorescence intensity versus added GGT amount", "setting": "[3]; pH 7.4, 37° C., 9 minutes after addition of enzyme, emission 524 nm", "result": "linear increase of fluorescence intensity in an added GGT amount-dependent manner"}]}]}
